Reference: patent EP4752152A1, “STEROID COMPOUND, AND PREPARATION METHOD THEREFOR AND USE THEREOF” (Cholesgen (Shanghai) Co.Ltd., priority 2023, dated 2025)

What was measured:
SREBP pathway = experiment: SREBP luciferase reporter gene system (SRE-luciferase assay); assay type: cell-based, human; conditions: Huh-7/SRE-luc cells, sterol-deficient medium, 0.01-10 µM
Outline: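 Huh-7 cells stably carrying LDLR promoter-luciferase plus GFP were treated 16 h in sterol-deficient medium (5% lipoprotein-deficient serum, 2 µM lovastatin, 10 µM mevalonic acid) at 0.01–10 µM. Luciferase/GFP ratio measured as pathway activity; inhibition versus DMSO fitted to a four-parameter model for IC50.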

[1] = test system: Fatty Acid Synthase (FASN) gene; experiment: Inhibition of FASN gene expression (qPCR) in Huh-7 cells; assay type: cell-based, human; conditions: Homo sapiens, Huh-7, 16 h, Huh-7 cells, starvation medium, 16 hours, qPCR; class symbols; read-out: FASN IC50
Description: Huh-7 cells (purchased from ATCC) were cultured in DMEM medium (containing 10% fetal bovine serum LONSERA S711-001S) at 37°C in a 5% CO2 incubator. After 24 hours, the original medium was aspirated and replaced with DMEM starvation medium (containing 5% lipoprotein deficient serum (LPDS), 2 µM lovastatin, and 10 µM mevalonate). The control group was treated with dimethyl sulfoxide (DMSO), while the compound treatment groups were treated with different concentrations of compounds. The highest concentration of the compound was 3000 nM, with 3-fold dilutions, totaling 5 concentrations. The cells were cultured for 16 hours. Cell lysis was performed, followed by reverse transcription from cells to cDNA, and qPCR was performed to detect the expression of the SREBP target gene Fatty Acid Synthase (FASN) gene (FASN gene forward primer sequence: 5'-[…]-3', reverse primer sequence: 5'-[…]-3'). The IC50 was calculated. The test data for each test compound were analyzed using Prism software (with the DMSO-treated group as the reference to calculate the compound inhibition rate, fitted using the Prism log(inhibitor) vs. responseVariable slope (four-parameter) model, calculation formula: Y = Bottom + (Top - Bottom)/(1 + 10^((LogIC50 - X) × HillSlope))), to obtain the IC50 parameters of the compounds. Table 4: Inhibition results of FASN gene expression by compounds from some examples

Compound | IC50 (SREBP pathway; Homo sapiens, Huh-7, 16 h) [µM] | IC50 [1] [nM] | IC50 (SREBP pathway; 16 hours) [µM]
C[C@H](CCCC(O)c1nc2cccc(Br)c2n1C)[C@H]1CC[C@H]2[C@H]3[C@H](CC[C@]12C)[C@@]1(C)CC[C@H](O)[C@H](O)[C@@H]1CC3(F)F (stereo partly drawn) [Compound 212, (1R,3aS,3bS,5aR,6R,7 S,9aR,9bS,11aR)-1-[(2R)-6-(7-Bromo-1-methylbenzo[d]imidazol-2-yl)-6-hydroxyhexan-2-yl]-4,4-difluoro-9a,11a-dimethylhexadecahydro-1H-cyclopenta[1,2-a]phenanthrene-6,7-diol] | 0.08 | 200 to 500 | 
C[C@H](CCCC(O)c1c(F)cccc1F)[C@H]1CC[C@H]2C3=C(F)CC4C[C@@H](O)CC[C@]4(C)[C@H]3CC[C@]12C (stereo in doubt) [Compound 82, (1R,3aR,7S,9aS,9bR,11aR)-1-[(2R)-6-(2,6-difluorophenyl)-6-hydroxyhexan-2-yl]-4-fluoro-9a,11a-dimethyl-2,3,3a,5,5a,6,7,8,9,9a,9b,10,11,11a-tetradecahydro-1H-cyclopenta[1,2-a]phenanthren-7-ol] | 0.357 | 200 to 500 | 
COc1cc(F)cc(F)c1C(O)CCC[C@@H](C)[C@H]1CC[C@H]2[C@H]3[C@H](CC[C@]12C)[C@@]1(C)CC[C@H](O)[C@H](O)[C@@H]1CC3(F)F (single isomer, unassigned) [Compound 200, (1R,3aS,3bS,5aR,6R,7S,9aR,9bS,11aR)-1-[(2R,6S)-6-(4,6-difluoro-2-methoxyphenyl)-6-hydroxyhexan-2-yl]-4,4-difluoro-9a,11a-dimethylhexadecahydro-1H-cyclopenta[1,2-a]phenanthrene-6,7-diol or (1R,3aS,3bS,5aR,6R,7S,9aR,9bS,11aR)-1-[(2R,6R)-6-(4,6-difluoro-2-methoxyphenyl)-6-hydroxyhexan-2-yl]-4,4-difluoro-9a, 11a-dimethylhexadecahydro-1H-cyclopenta[1,2-a]phenanthrene-6,7-diol] | 0.053 | < 200 | 
C[C@H](CCCC(O)c1ccc(F)cc1)[C@H]1CC[C@H]2C3=C(F)C[C@H]4[C@@H](O)[C@@H](O)CC[C@]4(C)[C@H]3CC[C@]12C (stereo partly drawn) [Compound 101, (1R,3aR,5aR,6R,7S,9aR,9bR,11aR)-4-fluoro-1-[(2R)-6-(4-fluorophenyl)-6-hydroxyhexan-2-yl]-9a,11a-dimethyl-2,3,3a,5,5a,6,7,8,9,9a,9b,10,11,11a-tetradecahydro-1H-cyclopenta[1,2-a]phenanthrene-6,7-diol] | 0.298 | 200 to 500 | 
C[C@H](CCCC(O)c1ccc(F)cc1F)[C@H]1CC[C@H]2[C@H]3[C@H](CC[C@]12C)[C@@]1(C)CC[C@H](O)[C@H](O)[C@@H]1CC3(F)F (stereo partly drawn) [Compound 102, (1R,3aS,3bS,5aR,6R,7S,9aR,9bS,11aR)-1-[(2R)-6-(2,4-difluorophenyl)-6-hydroxyhexan-2-yl]-4,4-difluoro-9a,11a-dimethylhexadecahydro-1H-cyclopenta[1,2-a]phenanthrene-6,7-diol] | 0.14 | < 200 | 
COc1ncccc1C(O)CCC[C@@H](C)[C@H]1CC[C@H]2[C@H]3[C@H](CC[C@]12C)[C@@]1(C)CC[C@H](O)[C@H](O)[C@@H]1CC3(F)F (single isomer, unassigned) [Compound 192, (1R,3aS,3bS,5aR,6R,7S,9aR,9bS,11aR)-4,4-difluoro-1-[(2R,6S)-6-hydroxy-6-(^2-methoxypyridin-3-yl)hexan-2-yl]-9a,11a-dimethylhexadecahydro-1H-cyclopenta[1,2-a]phenanthrene-6,7-diol or (1R,3aS,3bS,5aR,6R,7S,9aR,9bS,11aR)-4,4-difluoro-1-[(2R,6R)-6-hydroxy-6-(2-methoxypyridin-3-yl)hexan-2-yl]-9a,11a-dimethylhexadecahydro-1H-cyclopenta[1,2-a]phenanthrene-6,7-diol] | 0.053 | 200 to 500 | 
COc1ccnc(OC)c1C(O)CCC[C@@H](C)[C@H]1CC[C@H]2[C@H]3[C@H](CC[C@]12C)[C@@]1(C)CC[C@H](O)[C@H](O)[C@@H]1CC3(F)F (single isomer, unassigned) [Compound 171, (1R,3aS,3bS,5aR,6R,7S,9aR,9bS,11aR)-1-[(2R,6S)-6-(2,4-dimethoxypyridin-3-yl)-6-hydroxyhexan-2-yl]-4,4-difluoro-9a,11a-dimethylhexadecahydro-1H-cyclopenta[1,2-a]phenanthrene-6,7-diol or (1R,3aS,3bS,5aR,6R,7S,9aR,9bS,11aR)-1-[(2R,6R)-6-(2,4-dimethoxypyridin-3-yl)-6-hydroxyhexan-2-yl]-4,4-difluoro-9a,11a-dimethylhexadecahydro-1H-cyclopenta[1,2-a]phenanthrene-6,7-diol] |  | < 200 | 0.013
COc1ccnc(F)c1[C@H](O)CCC[C@@H](C)[C@H]1CC[C@H]2[C@H]3[C@H](CC[C@]12C)[C@@]1(C)CC[C@H](O)[C@H](O)[C@@H]1CC3(F)F (single isomer, unassigned) [Compound 230] | 0.062 | < 200 | 
COc1cc(F)c([C@@H](O)CCC[C@@H](C)[C@H]2CC[C@H]3[C@H]4[C@H](CC[C@]23C)[C@@]2(C)CC[C@H](O)[C@H](O)[C@@H]2CC4(F)F)c(F)c1Br (single isomer, unassigned) [Compound 198] | 0.058 | < 200 | 
COc1cc(F)cc(F)c1C(O)CCC[C@@H](C)[C@H]1CC[C@H]2C3CC[C@H]4[C@@H](O)[C@@H](O)CC[C@]4(C)[C@H]3CC[C@]12C (stereo in doubt) [Compound 104, (1R,3aS,5aR,6R,7S,9aR,9bS,11aR)-1-[(2R)-6-(2,4-Difluoro-6-methoxyphenyl)-6-hydroxyhexan-2-yl]-9a,11a-dimethylhexadecahydro-1H-cyclopenta[1,2-a]phenanthrene-6,7-diol] | 0.25 | 200 to 500 | 
C[C@H](CCC[C@H](O)c1c(F)ccnc1F)[C@H]1CC[C@H]2[C@H]3[C@H](CC[C@]12C)[C@@]1(C)CC[C@H](O)[C@H](O)[C@@H]1CC3(F)F (single isomer, unassigned) [Compound 233] | 0.106 | 200 to 500 | 
COc1cccc(F)c1C(O)CCC[C@@H](C)[C@H]1CC[C@H]2[C@H]3[C@H](CC[C@]12C)[C@@]1(C)CC[C@H](O)C[C@@H]1CC3(F)F (single isomer, unassigned) [Compound 314] | 0.14 | 500 to 900 | 
COc1nc(F)ccc1[C@H](O)CCC[C@@H](C)[C@H]1CC[C@H]2[C@H]3[C@H](CC[C@]12C)[C@@]1(C)CC[C@H](O)C[C@@H]1CC3(F)F [Compound 313, (1R,3aS,3bR,5aR,7S,9aS,9bS,11aR)-4,4-difluoro-1-[(2R,6R)-6-(6-fluoro-2-methoxypyridin-3-yl)-6-hydroxyhexan-2-yl]-9a,11a-dimethylhexadecahydro-1H-cyclopenta[1,2-a]phenanthren-7-ol] | 0.076 | 500 to 900 | 
COc1nc(F)ccc1C(O)CCC[C@@H](C)[C@H]1CC[C@H]2C3=C(F)C[C@H]4[C@@H](O)[C@@H](O)CC[C@]4(C)[C@H]3CC[C@]12C (stereo partly drawn) [Compound 107, (1R,3aR,5aR,6R,7S,9aR,9bR,11aR)-4-fluoro-1-[(2R)-6-(6-fluoro-2-methoxypyridin-3-yl)-6-hydroxyhexan-2-yl]-9a,11a-dimethyl-2,3,3a,5,5a,6,7,8,9,9a,9b,10,11,11a-tetradecahydro-1H-cyclopenta[1,2-a]phenanthrene-6,7-diol] | 0.0777 | 200 to 500 | 
